The values below come from US12516056B2, “Compounds for inhibition of janus kinase 1” (MANKIND PHARMA LTD., priority 2019, dated 2026).

One assay deals with T1, Recombinant JAK1 (Homo sapiens, UniProt P23458).
T1 construct: purchased Carna Biosciences
The experiment in a line: JAK biochemical assay (LANCE Ultra TR-FRET), JAK1. The following applies: recombinant JAK1, TR-FRET; read-out: Biochemical Assay (μM) JAK1. The method, then: (§1) Recombinant JAK1, JAK2, JAK3 and TYK2 (Carna Biosciences) were used to develop biochemical assays in 50 mM HEPES pH 7.5, 1 mM EGTA, 10 mM MgCl2, 2 mM DTT and 0.01% Tween-20. […] The intensity of the light emission is proportional to the level of ULight substrate phosphorylation. Compounds which interfere with JAK enzyme activity show a lesser substrate phosphorylation and values are projected in terms of % inhibition in comparison to vehicle control.
For orientation: TR-FRET usually uses a lanthanide donor and a delayed reading to cut background.

A further assay has as its target T2, Recombinant JAK2 (Homo sapiens, UniProt O60674).
T2 construct: purchased Carna Biosciences
Kind of assay: JAK biochemical assay (LANCE Ultra TR-FRET), JAK2. The following applies: recombinant JAK2, TR-FRET; read-out: Biochemical Assay (μM) JAK2. The method, then:
as §1

The target of another assay is T3, Recombinant JAK3 (Homo sapiens, UniProt P52333).
T3 construct: purchased Carna Biosciences
T3 sequence (P52333 1-1124): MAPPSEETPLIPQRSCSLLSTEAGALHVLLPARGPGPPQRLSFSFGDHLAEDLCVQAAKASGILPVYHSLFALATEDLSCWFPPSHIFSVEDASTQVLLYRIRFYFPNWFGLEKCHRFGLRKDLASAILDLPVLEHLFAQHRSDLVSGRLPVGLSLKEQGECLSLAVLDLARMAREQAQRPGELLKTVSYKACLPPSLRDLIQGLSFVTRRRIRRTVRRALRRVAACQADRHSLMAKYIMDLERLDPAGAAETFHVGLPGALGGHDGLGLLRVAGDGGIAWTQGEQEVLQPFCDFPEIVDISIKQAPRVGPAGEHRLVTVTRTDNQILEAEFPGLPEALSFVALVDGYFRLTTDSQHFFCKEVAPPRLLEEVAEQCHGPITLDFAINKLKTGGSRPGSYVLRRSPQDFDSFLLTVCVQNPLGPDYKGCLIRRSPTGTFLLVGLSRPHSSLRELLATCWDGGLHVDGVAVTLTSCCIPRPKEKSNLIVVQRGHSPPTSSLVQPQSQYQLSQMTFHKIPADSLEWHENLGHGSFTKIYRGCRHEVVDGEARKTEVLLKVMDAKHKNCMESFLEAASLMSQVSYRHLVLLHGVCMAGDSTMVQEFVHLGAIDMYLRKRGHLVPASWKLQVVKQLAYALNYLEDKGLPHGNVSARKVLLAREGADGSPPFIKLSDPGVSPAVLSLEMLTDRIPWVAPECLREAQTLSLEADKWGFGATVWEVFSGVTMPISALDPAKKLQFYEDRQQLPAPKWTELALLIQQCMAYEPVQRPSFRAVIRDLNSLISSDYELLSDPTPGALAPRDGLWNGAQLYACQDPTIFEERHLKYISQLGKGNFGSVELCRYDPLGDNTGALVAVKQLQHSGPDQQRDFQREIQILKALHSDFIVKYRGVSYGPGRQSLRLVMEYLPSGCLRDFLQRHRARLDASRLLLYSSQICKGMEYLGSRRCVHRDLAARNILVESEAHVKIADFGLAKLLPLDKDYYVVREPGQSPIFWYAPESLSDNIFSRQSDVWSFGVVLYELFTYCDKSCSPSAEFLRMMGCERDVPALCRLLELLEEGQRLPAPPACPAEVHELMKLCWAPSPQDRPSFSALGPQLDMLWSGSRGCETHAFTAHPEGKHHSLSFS
The experiment in a line: JAK biochemical assay (LANCE Ultra TR-FRET), JAK3. Particulars: recombinant JAK3, TR-FRET; read-out: Biochemical Assay (μM) JAK3. How it is done: as §1

The target of the next assay is T4, Recombinant TYK2 (Homo sapiens, UniProt P29597).
T4 construct: purchased Carna Biosciences
T4 sequence (P29597 whole entry): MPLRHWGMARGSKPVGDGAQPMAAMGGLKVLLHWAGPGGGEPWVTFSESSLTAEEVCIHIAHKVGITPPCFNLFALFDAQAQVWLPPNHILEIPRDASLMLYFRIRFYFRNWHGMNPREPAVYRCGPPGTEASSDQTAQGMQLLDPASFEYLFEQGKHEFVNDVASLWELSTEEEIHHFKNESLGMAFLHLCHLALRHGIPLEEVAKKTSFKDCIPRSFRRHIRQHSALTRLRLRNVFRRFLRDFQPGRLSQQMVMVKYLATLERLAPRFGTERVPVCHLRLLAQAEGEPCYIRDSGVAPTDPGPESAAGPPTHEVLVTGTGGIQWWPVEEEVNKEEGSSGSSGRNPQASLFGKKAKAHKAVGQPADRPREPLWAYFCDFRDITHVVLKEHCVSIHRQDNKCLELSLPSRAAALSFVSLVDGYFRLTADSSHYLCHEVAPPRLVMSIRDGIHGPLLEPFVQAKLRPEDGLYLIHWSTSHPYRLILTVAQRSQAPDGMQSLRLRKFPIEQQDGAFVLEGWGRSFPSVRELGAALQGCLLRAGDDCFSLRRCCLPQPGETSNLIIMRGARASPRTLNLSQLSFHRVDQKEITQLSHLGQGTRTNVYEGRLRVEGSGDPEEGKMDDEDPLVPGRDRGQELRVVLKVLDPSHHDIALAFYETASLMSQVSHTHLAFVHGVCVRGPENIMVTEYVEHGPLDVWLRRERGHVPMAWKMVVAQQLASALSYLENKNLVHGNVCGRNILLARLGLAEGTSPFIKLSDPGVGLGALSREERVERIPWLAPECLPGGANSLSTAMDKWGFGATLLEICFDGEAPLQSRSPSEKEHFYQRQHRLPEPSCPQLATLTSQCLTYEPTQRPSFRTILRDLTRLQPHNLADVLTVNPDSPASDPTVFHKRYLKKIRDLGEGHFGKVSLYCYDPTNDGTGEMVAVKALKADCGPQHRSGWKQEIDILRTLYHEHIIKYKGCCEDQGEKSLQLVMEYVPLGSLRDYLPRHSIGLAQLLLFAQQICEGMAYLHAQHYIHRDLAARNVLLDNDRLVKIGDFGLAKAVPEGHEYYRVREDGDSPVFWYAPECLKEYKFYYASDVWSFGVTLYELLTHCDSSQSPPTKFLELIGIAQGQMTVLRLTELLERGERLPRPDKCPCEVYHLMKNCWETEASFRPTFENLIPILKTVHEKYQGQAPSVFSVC
Kind of assay: JAK biochemical assay (LANCE Ultra TR-FRET), TYK2. Particulars: recombinant TYK2, TR-FRET; read-out: Biochemical Assay (μM) TYK2. The method, then: as §1

T1 sequence (P23458 whole entry): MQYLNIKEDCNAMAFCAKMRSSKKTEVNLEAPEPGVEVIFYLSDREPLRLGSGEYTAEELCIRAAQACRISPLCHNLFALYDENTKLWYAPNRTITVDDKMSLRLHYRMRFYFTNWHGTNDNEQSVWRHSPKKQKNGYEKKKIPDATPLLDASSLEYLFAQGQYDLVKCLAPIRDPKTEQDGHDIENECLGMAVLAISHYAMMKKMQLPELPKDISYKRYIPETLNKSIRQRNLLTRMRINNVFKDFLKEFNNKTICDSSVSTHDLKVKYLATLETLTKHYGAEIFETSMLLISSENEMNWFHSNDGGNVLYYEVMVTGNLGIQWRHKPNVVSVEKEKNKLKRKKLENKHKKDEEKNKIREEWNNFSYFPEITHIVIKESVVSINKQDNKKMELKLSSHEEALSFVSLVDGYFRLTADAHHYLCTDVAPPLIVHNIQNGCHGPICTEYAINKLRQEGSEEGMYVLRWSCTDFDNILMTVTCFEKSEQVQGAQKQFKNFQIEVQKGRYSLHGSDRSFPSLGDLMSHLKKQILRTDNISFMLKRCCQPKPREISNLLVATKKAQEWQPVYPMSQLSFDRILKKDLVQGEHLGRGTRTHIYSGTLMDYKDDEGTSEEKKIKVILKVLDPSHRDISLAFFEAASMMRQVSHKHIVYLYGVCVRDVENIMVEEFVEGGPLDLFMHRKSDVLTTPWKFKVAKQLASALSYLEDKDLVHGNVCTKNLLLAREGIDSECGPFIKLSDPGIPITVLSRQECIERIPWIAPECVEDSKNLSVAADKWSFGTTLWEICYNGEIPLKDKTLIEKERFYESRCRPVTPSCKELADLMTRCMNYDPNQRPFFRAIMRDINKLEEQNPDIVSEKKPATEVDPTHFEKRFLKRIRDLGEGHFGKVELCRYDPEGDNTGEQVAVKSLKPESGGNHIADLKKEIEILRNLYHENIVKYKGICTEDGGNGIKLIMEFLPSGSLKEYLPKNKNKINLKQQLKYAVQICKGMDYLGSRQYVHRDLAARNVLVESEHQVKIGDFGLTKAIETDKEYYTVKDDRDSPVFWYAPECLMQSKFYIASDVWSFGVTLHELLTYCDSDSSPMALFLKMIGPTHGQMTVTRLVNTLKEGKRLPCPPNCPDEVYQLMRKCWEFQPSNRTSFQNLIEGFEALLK
T2 sequence (O60674 whole entry): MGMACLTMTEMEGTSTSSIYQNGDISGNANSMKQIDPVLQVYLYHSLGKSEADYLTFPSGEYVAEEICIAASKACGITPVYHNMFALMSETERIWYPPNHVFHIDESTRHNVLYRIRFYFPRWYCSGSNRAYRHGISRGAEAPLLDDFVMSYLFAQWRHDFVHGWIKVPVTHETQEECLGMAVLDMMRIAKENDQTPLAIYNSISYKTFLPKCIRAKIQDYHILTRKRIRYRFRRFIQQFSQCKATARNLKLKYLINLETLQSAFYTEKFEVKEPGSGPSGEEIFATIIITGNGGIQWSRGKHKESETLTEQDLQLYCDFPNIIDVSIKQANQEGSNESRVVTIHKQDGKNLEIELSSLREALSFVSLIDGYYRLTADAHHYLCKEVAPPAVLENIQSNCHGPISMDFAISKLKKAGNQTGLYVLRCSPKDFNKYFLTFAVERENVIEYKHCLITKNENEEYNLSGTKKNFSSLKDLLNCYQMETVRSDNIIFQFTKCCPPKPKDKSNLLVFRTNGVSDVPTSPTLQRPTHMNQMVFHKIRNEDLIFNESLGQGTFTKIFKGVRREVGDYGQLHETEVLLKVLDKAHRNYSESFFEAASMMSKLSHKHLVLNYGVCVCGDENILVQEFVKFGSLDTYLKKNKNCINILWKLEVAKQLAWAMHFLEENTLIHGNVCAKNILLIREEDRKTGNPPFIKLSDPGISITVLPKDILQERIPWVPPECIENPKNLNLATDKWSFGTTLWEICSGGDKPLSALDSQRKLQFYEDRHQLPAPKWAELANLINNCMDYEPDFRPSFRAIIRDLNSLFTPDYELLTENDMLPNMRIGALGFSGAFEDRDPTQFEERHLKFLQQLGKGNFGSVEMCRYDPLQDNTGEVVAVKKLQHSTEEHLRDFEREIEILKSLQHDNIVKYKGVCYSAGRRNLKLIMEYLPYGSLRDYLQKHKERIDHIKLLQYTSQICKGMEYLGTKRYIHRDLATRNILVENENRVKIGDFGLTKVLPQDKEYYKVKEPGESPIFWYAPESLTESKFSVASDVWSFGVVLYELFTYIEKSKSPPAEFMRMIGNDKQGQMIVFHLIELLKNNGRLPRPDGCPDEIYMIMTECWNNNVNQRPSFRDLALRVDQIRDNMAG

For the compound `O=C(NC1CCS(=O)(=O)CC1)N1CCN(c2ccnc3[nH]c(=O)[nH]c23)CC1` [Example 1020, N-(1,1-dioxidotetrahydro-2H-thiopyran-4-yl)-4-(2-oxo-2,3-dihydro-1H-imidazo[4,5-b]pyridin-7-yl)piperazine-1-carboxamide], the IC50 at Recombinant JAK1, on Recombinant JAK2, at Recombinant JAK3 and at Recombinant TYK2 was over 10 µM throughout.

Take `N#CCNC(=O)c1ccc(-n2cc(-c3ccnc4[nH]cnc34)cn2)nc1` [Example 1088, 6-(4-(3H-imidazo[4,5-b]pyridin-7-yl)-1H-pyrazol-1-yl)-N-(cyanomethyl)pyridine-3-carboxamide]: the IC50 at Recombinant JAK1, at Recombinant JAK2, at Recombinant JAK3 and on Recombinant TYK2 was over 1 µM each time.

Consider `O=C(CCC(F)(F)F)n1cc(-c2ccnc3[nH]c(=O)[nH]c23)cn1` [Example 1031, 7-(1-(4,4,4-trifluorobutanoyl)-1H-pyrazol-4-yl)-1H-imidazo[4,5-b]pyridin-2(3H)-one], for which the IC50 at Recombinant JAK1, on Recombinant JAK2, at Recombinant JAK3 and on Recombinant TYK2 was over 1 µM each time.

As to `CC1(C)CN(C(=O)N2CCN(c3ccnc4[nH]c(=O)[nH]c34)CC2)C1` [Example 1023, 7-(4-(3,3-dimethylazetidine-1-carbonyl)piperazin-1-yl)-1,3-dihydro-2H-imidazo[4,5-b]pyridin-2-one], the IC50 on Recombinant JAK1, on Recombinant JAK2, on Recombinant JAK3 and on Recombinant TYK2 was over 10 µM each time.

Take `N#Cc1ccc(-n2cc(-c3ccnc4[nH]cnc34)cn2)nc1` [Example 1079, 6-(4-(3H-imidazo[4,5-b]pyridin-7-yl)-1H-pyrazol-1-yl)pyridine-3-carbonitrile]: the IC50 on Recombinant JAK1 was over 10 µM; at Recombinant JAK2, over 1 µM; on Recombinant JAK3, over 1 µM; at Recombinant TYK2, over 10 µM.

With `Cc1cc(S(C)(=O)=O)ccc1NC(=O)N1CCN(c2ccnc3[nH]c(=O)[nH]c23)CC1` [Example 1024, 4-(2,3-dihydro-2-oxo-1H-imidazo[4,5-b]pyridin-7-yl)-N-(2-methyl-4-(methylsulfonyl)phenyl)piperazine-1-carboxamide], the IC50 at Recombinant JAK1, at Recombinant JAK2, at Recombinant JAK3 and at Recombinant TYK2 was over 1 µM each time.

Turning to `CC(C)OC(c1ccc(-n2cc(-c3ccnc4[nH]cnc34)cn2)nc1)C(F)(F)F` (stereo not drawn) [Example 1124, 7-(1-(5-(2,2,2-trifluoro-1-isopropoxyethyl)pyridin-2-yl)-1H-pyrazol-4-yl)-3H-imidazo[4,5-b]pyridine], the IC50 on Recombinant JAK1 was over 1 µM; at Recombinant JAK2 it was over 1 µM; at Recombinant JAK3, over 0.5 µM; on Recombinant TYK2, over 1 µM.

Regarding `O=C(CC(c1ccc(-n2cc(-c3ccnc4[nH]cnc34)cn2)nc1)C(F)(F)F)N1CCOCC1` (stereo not drawn) [Example 1249, 3-(6-(4-(3H-imidazo[4,5-b]pyridin-7-yl)-1H-pyrazol-1-yl)pyridin-3-yl)-4,4,4-trifluoro-1-morpholinobutan-1-one], the IC50 is over 0.5 µM on Recombinant JAK1, over 0.5 µM at Recombinant JAK2, over 0.5 µM at Recombinant JAK3 and over 1 µM on Recombinant TYK2.

For `O=C(NCC(F)(F)F)n1cc(-c2ccnc3[nH]c(C4CC4)nc23)cn1` [Example 1096, 4-(2-cyclopropyl-3H-imidazo[4,5-b]pyridin-7-yl)-N-(2,2,2-trifluoroethyl)-1H-pyrazole-1-carboxamide], the IC50 on Recombinant JAK1 is over 10 µM; at Recombinant JAK2, over 1 µM; on Recombinant JAK3 it was over 1 µM; on Recombinant TYK2, over 10 µM.

Consider `CC(=O)N1CCC(c2nc3c(-c4cnn(C(=O)NCC(F)(F)F)c4)ccnc3[nH]2)CC1` [Example 1098, 4-(2-(1-acetylpiperidin-4-yl)-3H-imidazo[4,5-b]pyridin-7-yl)-N-(2,2,2-trifluoroethyl)-1H-pyrazole-1-carboxamide], for which the IC50 at Recombinant JAK1 is over 1 µM; on Recombinant JAK2 it was over 1 µM; at Recombinant JAK3 it was over 1 µM; at Recombinant TYK2, over 10 µM.

On to `N#CCNC(=O)c1cnc(-n2cc(-c3ccnc4[nH]cnc34)cn2)nc1` [Example 1093, 2-(4-(3H-imidazo[4,5-b]pyridin-7-yl)-1H-pyrazol-1-yl)-N-(cyanomethyl)pyrimidine-5-carboxamide], for which the IC50 at Recombinant JAK1 was over 0.5 µM; on Recombinant JAK2, under 0.5 µM; at Recombinant JAK3 it was under 0.5 µM; on Recombinant TYK2 it was over 10 µM.

As to `CS(=O)(=O)N1CCC(NC(=O)N2CCN(c3ccnc4[nH]c(=O)[nH]c34)CC2)CC1` [Example 1016, N-(1-(methylsulfonyl)piperidin-4-yl)-4-(2-oxo-2,3-dihydro-1H-imidazo[4,5-b]pyridin-7-yl)piperazine-1-carboxamide], the IC50 on Recombinant JAK1, on Recombinant JAK2, at Recombinant JAK3 and on Recombinant TYK2 was over 10 µM each time.

Consider `O=C(Nc1ccc(-c2ccnc3[nH]c(=O)[nH]c23)cc1)N1CCOCC1` [Example 1008, N-(4-(2,3-dihydro-2-oxo-1H-imidazo[4,5-b]pyridin-7-yl)phenyl)morpholine-4-carboxamide], for which the IC50 at Recombinant JAK1 was over 1 µM; on Recombinant JAK2 it was over 1 µM; at Recombinant JAK3, over 1 µM; on Recombinant TYK2, over 10 µM.

`N#CCC1CCN(C(=O)n2cc(-c3ccnc4[nH]c(=O)[nH]c34)cn2)C1` (stereo not drawn) [Example 1057, 2-(1-(4-(2-oxo-2,3-dihydro-1H-imidazo[4,5-b]pyridin-7-yl)-1H-pyrazole-1-carbonyl)pyrrolidin-3-yl)acetonitrile]: the IC50 is over 0.5 µM on Recombinant JAK1, over 0.5 µM on Recombinant JAK2, over 0.5 µM at Recombinant JAK3 and over 1 µM on Recombinant TYK2.

For the compound `N#CC1CN(C(=O)c2ccc(-n3cc(-c4ccnc5[nH]cnc45)cn3)nc2)C1` [Example 1089, 1-(6-(4-(3H-imidazo[4,5-b]pyridin-7-yl)-1H-pyrazol-1-yl)nicotinoyl)azetidine-3-carbonitrile], the IC50 at Recombinant JAK1 is over 0.5 µM; at Recombinant JAK2, over 0.5 µM; on Recombinant JAK3, over 1 µM; at Recombinant TYK2, over 1 µM.

On to `CC(C)(CO)C(c1ccc(-n2cc(-c3ccnc4[nH]cnc34)cn2)nc1)C(F)(F)F` (stereo not drawn) [Example 1196, 3-(6-(4-(3H-imidazo[4,5-b]pyridin-7-yl)-1H-pyrazol-1-yl)pyridin-3-yl)-4,4,4-trifluoro-2,2-dimethylbutan-1-ol], for which the IC50 at Recombinant JAK1 was over 0.1 µM; at Recombinant JAK2 it was over 0.5 µM; at Recombinant JAK3, over 0.1 µM; on Recombinant TYK2 it was over 1 µM.

Regarding `CS(=O)(=O)CCNC(=O)N1CCN(c2ccnc3[nH]c(=O)[nH]c23)CC1` [Example 1013, 4-(2,3-dihydro-2-oxo-1H-imidazo[4,5-b]pyridin-7-yl)-N-(2-(methylsulfonyl)ethyl)piperazine-1-carboxamide], the IC50 at Recombinant JAK1, at Recombinant JAK2, on Recombinant JAK3 and on Recombinant TYK2 was over 10 µM throughout.

As for `FC(F)(F)C(CN1CCOCC1)c1ccc(-n2cc(-c3ccnc4[nH]cnc34)cn2)nc1` (stereo not drawn) [Example 1206, 7-(1-(5-(1,1,1-trifluoro-3-morpholinopropan-2-yl)pyridin-2-yl)-1H-pyrazol-4-yl)-3H-imidazo[4,5-b]pyridine], the IC50 at Recombinant JAK1 is over 0.1 µM; on Recombinant JAK2, over 0.1 µM; at Recombinant JAK3, over 0.5 µM; at Recombinant TYK2, over 1 µM.
